Experimental data as given in article PMC8230802, “The Effects of Food on Cannabidiol Bioaccessibility” (Molecules, 2021).
Several values for one entry are separate records, joined by “and”; a condition that tells them apart may be missing. Equal entries are not always repeated. Where two headings read alike, the source gives them in different places.

How the values were obtained:
[1] = Fasted state three-phase in vitro digestion of CBD; type: in vitro ADME; conditions: for Micellarization efficiency: CBD in AQ / DG x 100; for Digestive stability: CBD in DG / raw material x 100
Method: The three-step in vitro digestion employed to mimic the human digestive tract in this study consisted of an oral phase, a gastric phase, and an intestinal phase. The method used was modified slightly from a previously described protocol. For the fasted state digestion oral phase, 10 mg and 100 mg of CBD were added to 1 mL distilled water in a 50 mL pyrex glass centrifuge tube (DAIGGER Scientific, Hamilton, NJ, USA) and mixed with 1 mL oral fluid. The mixtures were vortexed for 30 s and immediately the gastric phase of digestion was started by adding pepsin into NaHCO3 and the pH was adjusted to 2.5. The mixtures were blanketed with nitrogen gas, wrapped in parafilm, and shaken in a 37 °C incubator for 1 h in the dark at 95 rpm. Meanwhile, the intestinal phase was prepared (Table S1) by mixing bile in NaHCO3 and sonicating it for 45 min. For the intestinal phase, the pancreatin-lipase (2 mL of 2:1 ratio) was mixed into the same solution as bile salt. The enzyme solution and the bile solution were added to the tube containing the gastric phase and the pH was adjusted to 6.5 using 1N NaOH. The digestion sample tubes were blanketed with nitrogen and shaken for another 2 h at 37 °C in the dark at 95 rpm. After completion of the intestinal phase, 4 mL of the resulting Digesta (DG) was transferred into conical tubes, diluted with acetonitrile DG: Acetonitrile 1:2 (v/v), blanketed with nitrogen, and kept at −80 °C for analysis by UPLC-MS. The remaining volumes of the DG samples were centrifuged at 10,000× g at 4 °C for 60 min (Beckman L7-65 Ultracentrifuge, Beckman Instruments, Palo Alto, CA, USA). After centrifugation, the aqueous supernatant (AQ) containing the micellar fractions were filtered through the 0.22 µm pore (VWR, USA), diluted with acetonitrile AQ: Acetonitrile 1:2 (v/v) and stored at −80 °C for further analysis. The insoluble pellet was dissolved into the acetonitrile 1:2 (v/v) for further analysis.
(§1) Diluted AQ and DG fractions were filtered using the 0.2 µm nylon filters for DG fraction and injected for analysis by ultra-performance liquid chromatography-mass spectrometry (UPLC-MS) to obtain CBD concentration values. Percent (%) recovery values were calculated for CBD using the following equation:(1) % Recovery=Concentration in AQ/Concentration in DG×100
(§2) CBD was quantified in pellet (P), digesta (DG) and aqueous (AQ) fractions by liquid chromatography—mass spectrometry. Digestive stability, the percentage recovery of CBD in DG fraction was calculated by dividing the moles of CBD quantified in DG by the moles of CBD quantified in raw material (RM) multiplied by 100. The micellarization efficiency is the percentage of CBD recovered in the AQ phase of digestion and was calculated by dividing the moles of CBD in AQ by the moles of CBD in DG multiplied by 100.

[2] = MS/MS survey of metabolites in digestion phases; type: in vitro ADME; conditions: DG, AQ and P phases, negative ion mode
Method: To further confirm the presence of any metabolites in the DG, AQ, and P phases, an MS/MS survey was performed on negative ion mode with the inclusion list of all the masses for the expected metabolites (Table S2). The setting for TOF MSMS function was as follows: centroid data format, negative mode and polarity, mass rages from 100 to 1000, time 0 min to 25.0 min and scan time 2.1 s with inter scan time of 0.1 s. The instrument parameters were as follows: capillary 3000.0 V, sample cone 35.0 V, source temperature 100 °C and collision energy 5.0.

[3] = Fed state three-phase in vitro digestion of CBD (olive oil and baby food); type: in vitro ADME; conditions: for Digestive stability: CBD in DG / raw material x 100
Method: For the fed in vitro digestion experiment, CBD was mixed with foods and oil. Briefly, 10 mg and 100 mg CBD were each first mixed with 0.5 g olive oil, and then added to 2 g baby food (Turkey and Gravy, Gerber, IL, USA). The oral phase samples were vortexed for 30 s followed by the gastric and intestinal phase protocols mentioned above. After the completion of the three-phase in vitro digestion procedure, 15 mL of the DG sample was collected, blanketed with nitrogen and kept at −80 °C for further analysis. The rest of the DG sample was centrifuged at 10,000× g for 1 h at 4 °C and the AQ fraction was collected, filtered, diluted in acetonitrile 1:2 (v/v) and blanketed with nitrogen and kept at −80 °C for the UPLC-MS analysis.
as §1, §2

[4] = parameters: method as in PMID 27648135; conditions: rats; cited from earlier work
[5] = parameters: method as in PMID 6262948; conditions: Rhesus monkeys, on average; cited from earlier work
[6] = with sesame oil; cited from earlier work
lipase = assay: Lipase activity assay with pNPP substrate; type: biochemical
Method: The lipase, pancreatin and bile were purchased from Sigma-Aldrich. The p-nitrophenyl palmitate (pNPP), a […] compound (N2752, Sigma-Aldrich), was used as a substrate for the lipase enzyme as previously described. Upon hydrolysis of palmitate from pNPP, the resulting product is 4-nitrophenol (4-NP), and can be measured spectrophotometrically at 410 nm.
Final assay enzyme concentrations were 1:2 mg/mL lipase:pancreatin and 1:2:3 mg/mL lipase: pancreatin:bile using 96 well plates separately just as in the artificial digestion protocol. Controls consisted of phosphate buffer and lipase enzyme without substrate pNPP. Experimental wells contained substrate pNPP in phosphate buffer and the lipase enzyme. All experimental and control wells were performed in triplicate. Temperature was set at 37 °C and the spectrophotometer was set to collect kinetic data over 2 h for the lipase: pancreatin (1:2) experiment. Substrate concentrations were 0.1 mM and 1.0 mM and were made from the 10.0 mM stock solution of pNPP in isopropanol. 4-NP dilutions in phosphate buffer were used to make a standard curve ranging from 5–1000 µM.
On a separate 96 well plate, the same procedure was followed for the lipase: pancreatin: bile salt (1:2:3) experiment. Control and experimental samples were the same as mentioned above for the 1:2 mg/mL lipase: pancreatin experiment. […] After an incubation period of 30 min at 37 °C, 25 µL of the reaction mixture (supernatant) was taken and immediately mixed with 1 mL of 0.1 N NaOH in a 1 mL cuvette to stop the reaction and dilute the sample. The liberated pNP was detected at 410 nm, and bile salt interference was corrected by using a blank without substrate for background subtraction. The reaction rates for this experiment were obtained from the slope of the absorbance versus the time curve by using an extinction coefficient for the p-nitrophenol (pNP) that was determined from the absorbance of pNP as a standard solution.

C=C(C)[C@@H]1CCC(C)=C[C@H]1c1c(O)cc(CCCCC)cc1O [CBD, Cannabidiol]
Micellarization efficiency ([1]; 10 mg CBD): 0.65 ± 0.7%
Digestive stability ([1]; 10 mg CBD): 72.99 ± 6%
recovery at 3 h, 10 mg CBD per digestion (in 1 mL water + 1 mL oral fluid) ([1]; 10 mg CBD, read-out: % recovery in aqueous (AQ) micellar fraction): 0.69 ± 1.5%
recovery at 3 h, 10 mg CBD per digestion (in 1 mL water + 1 mL oral fluid) ([1]; 10 mg CBD, read-out: % recovery in digesta (DG)): 73 ± 6%
recovery at 3 h, 10 mg CBD per digestion (in 1 mL water + 1 mL oral fluid) ([1]; 10 mg CBD, read-out: % recovery in pellet (P)): 92.2 ± 10%
Micellarization efficiency ([1]; 100 mg CBD): 0.14 ± 0.1%
Digestive stability ([1]; 100 mg CBD): 95.67 ± 2%
recovery at 3 h, 100 mg CBD per digestion (in 1 mL water + 1 mL oral fluid) ([1]; 100 mg CBD, read-out: % recovery in aqueous (AQ) micellar fraction): 0.15 ± 1%
recovery at 3 h, 100 mg CBD per digestion (in 1 mL water + 1 mL oral fluid) ([1]; 100 mg CBD, read-out: % recovery in digesta (DG)): 95.7 ± 2%
recovery at 3 h, 100 mg CBD per digestion (in 1 mL water + 1 mL oral fluid) ([1]; 100 mg CBD, read-out: % recovery in pellet (P)): 74.1 ± 1.3%
Metabolites of CBD in digestion phases (MS/MS survey) [2]: No metabolites of CBD were observed
Increase in CBD recovery in the micellar fraction, fed vs fasted state digestion ([3]; fed digestion compared to fasted state digestion): 22 fold
Micellarization efficiency ([3]; fed state digestion, 10 mg CBD, CBD in AQ / DG x 100): 14.15 ± 0.6%
Digestive stability ([3]; fed state digestion, 10 mg CBD): 91.39 ± 25%
recovery at 3 h, 10 mg CBD per digestion (in 0.5 g olive oil + 2 g baby food) ([3]; fed state digestion, 10 mg CBD, read-out: % recovery in aqueous (AQ) micellar fraction): 12.9 ± 7%
recovery at 3 h, 10 mg CBD per digestion (in 0.5 g olive oil + 2 g baby food) ([3]; fed state digestion, 10 mg CBD, read-out: % recovery in digesta (DG)): 91.4 ± 25%
recovery at 3 h, 10 mg CBD per digestion (in 0.5 g olive oil + 2 g baby food) ([3]; fed state digestion, 10 mg CBD, read-out: % recovery in pellet (P)): 90.2 ± 18%
Digestive stability ([3]; fed state digestion, 100 mg CBD): 83.1 ± 25%
recovery at 3 h, 100 mg CBD per digestion (in 0.5 g olive oil + 2 g baby food) ([3]; fed state digestion, 100 mg CBD, read-out: % recovery in aqueous (AQ) micellar fraction): 18.6 ± 10%
recovery at 3 h, 100 mg CBD per digestion (in 0.5 g olive oil + 2 g baby food) ([3]; fed state digestion, 100 mg CBD, read-out: % recovery in digesta (DG)): 83.1 ± 25%
recovery at 3 h, 100 mg CBD per digestion (in 0.5 g olive oil + 2 g baby food) ([3]; fed state digestion, 100 mg CBD, read-out: % recovery in pellet (P)): 87.9 ± 29%
Increase in bioavailability by co-administration of lipids [4]: 2.5 fold
Oral bioavailability [5]: 16%
Recovery / bioavailable in the micellar fraction [6]: 30%

CCCCCc1cc(O)c2c(c1)OC(C)(C)[C@@H]1CCC(C)=C[C@@H]21 [THC, Δ9-tetrahydrocannabinol]
Increase in bioavailability by co-administration of lipids [4]: 3 fold
Recovery / bioavailable in the micellar fraction [6]: 30%

CCCCCCCCCCCCCCCC(=O)Oc1ccc([N+](=O)[O-])cc1 [pNPP, p-nitrophenyl palmitate]
% mole conversion of pNPP to NP (lipase; 0.1 mM pNPP, 1:2:3 lipase:pancreatin:bile): 95.5 ± 7.6%
% mole conversion of pNPP to NP (lipase; 0.1 mM pNPP, 1:2 lipase:pancreatin): 93.6 ± 0.3%
% mole conversion of pNPP to NP (lipase; 1 mM pNPP, 1:2:3 lipase:pancreatin:bile): 58.6% and 58.6 ± 5.7%
% mole conversion of pNPP to NP (lipase; 1 mM pNPP, 1:2 lipase:pancreatin): 20.6% and 20.6 ± 0.07%
